Experimental data taken from patent US10597388B2, “Pyridazinone herbicides” (FMC CORPORATION, priority 2014, dated 2020).

Key:
Experiment in all cases: Test E greenhouse herbicide test, pre- and postemergence
Format in all cases: in vivo
[1] = tested on: nightshade (eastern black nightshade, Solanum ptycanthum); conditions: Preemergence
Description: (§1) Seeds of plant species selected from corn (Zea mays), soybean (Glycine max), velvetleaf (Abutilon theophrasti), lambsquarters (Chenopodium album), wild poinsettia (Euphorbia heterophylla), pigweed, palmer (palmer pigweed, Amaranthus palmeri), waterhemp (common waterhemp, Amaranthus rudis), surinam grass (Brachiaria decumbens), crabgrass, large (large crabgrass, Digitaria sanguinalis), crabgrass, Brazilian (Brazilian crabgrass, Digitaria horizontalis), panicum, fall (fall panicum, Panicum dichotomiflorum), foxtail, giant (giant foxtail, Setaria faberii), foxtail, green (green foxtail, Setaria viridis), goosegrass (Eleusine indica), johnsongrass (Sorghum halepense), ragweed (common ragweed, Ambrosia elatior), barnyardgrass (Echinochloa crus-galli), sandbur (southem sandbur, Cenchrus echinatus), arrowleaf sida (Sida rhombifolia), Italian ryegrass (Lolium multiflorum), dayflower (Virginia (VA) dayflower, Commelina virginica), field bindweed (Convolvulus arvensis), momingglory (Ipomoea coccinea), nightshade (eastern black nightshade, Solanum ptycanthum), kochia (Kochia scoparia), nutsedge, yellow (yellow nutsedge, Cyperus esculentus), horseweed (Conyza canadensis), and beggarticks (hairy beggarticks, Bidens pilosa), were planted into a silt loam soil and treated preemergence with test chemicals formulated in a non-phytotoxic solvent mixture which included a surfactant.
(§2) At the same time, plants from these crop and weed species and also waterhemp_RES1, (ALS & Triazine resistant common waterhemp, Amaranthus rudis), and waterhemp_RES2, (ALS & HPPD resistant common waterhemp, Amaranthus rudis) were planted in pots containing Redi-Earth® planting medium (Scotts Company, 14111 Scottslawn Road, Marysville, Ohio 43041) comprising spaghnum peat moss, vermiculite, wetting agent and starter nutrients were treated with postemergence applications of test chemicals formulated in the same manner. Plants ranged in height from 2 to 18 cm for postemergence treatments (1- to 4-leaf stage). Treated plants and controls were maintained in a greenhouse for 14 to 21 d, after which time all species were compared to controls and visually evaluated. Plant response ratings, summarized in Table E, are based on a scale of 0 to 100 where 0 is no effect and 100 is complete control. A dash (-) response means no test result.

[2] = tested on: beggarticks (hairy beggarticks, Bidens pilosa)
Description: as §1, §2

[3] = tested on: sandbur (southem sandbur, Cenchrus echinatus)
Description: as §1, §2

[4] = tested on: surinam grass (Brachiaria decumbens); conditions: Preemergence
Description: as §1, §2

[5] = tested on: arrowleaf sida (Sida rhombifolia)
Description: as §1, §2

[6] = tested on: ragweed (common ragweed, Ambrosia elatior)
Description: as §1, §2

[7] = tested on: goosegrass (Eleusine indica); conditions: Preemergence
Description: as §1, §2

[8] = tested on: corn (Zea mays)
Description: as §1, §2

[9] = tested on: soybean (Glycine max)
Description: as §1, §2

[10] = tested on: panicum, fall (fall panicum, Panicum dichotomiflorum)
Description: as §1, §2

[11] = tested on: foxtail, giant (giant foxtail, Setaria faberii); conditions: Preemergence
Description: as §1, §2

[12] = tested on: johnsongrass (Sorghum halepense); conditions: Preemergence
Description: as §1, §2

[13] = tested on: kochia (Kochia scoparia)
Description: as §1, §2

[14] = tested on: crabgrass, Brazilian (Brazilian crabgrass, Digitaria horizontalis)
Description: as §1, §2

[15] = tested on: velvetleaf (Abutilon theophrasti); conditions: Preemergence
Description: as §1, §2

[16] = tested on: pigweed, palmer (palmer pigweed, Amaranthus palmeri)
Description: as §1, §2

[17] = tested on: lambsquarters (Chenopodium album); conditions: Preemergence
Description: as §1, §2

[18] = 62 g ai/ha, scale 0 to 100 (0 no effect, 100 complete control)
[19] = 125 g ai/ha, scale 0 to 100 (0 no effect, 100 complete control)
[20] = 31 g ai/ha, scale 0 to 100, 0 no effect, 100 complete control
[21] = 250 g ai/ha, visual, scale 0 no effect to 100 complete control
[22] = 62 g ai/ha, Postemergence, scale 0 to 100 (0 no effect, 100 complete control)
[23] = 62 g ai/ha, Preemergence, scale 0 to 100 (0 no effect, 100 complete control)
[24] = 125 g ai/ha, Postemergence, scale 0 to 100 (0 no effect, 100 complete control)
[25] = 250 g ai/ha, Postemergence, scale 0 to 100 (0 no effect, 100 complete control)
[26] = Postemergence, 31 g ai/ha, visual, scale 0 no effect to 100 complete control
[27] = Preemergence, 31 g ai/ha, scale 0 to 100, 0 no effect, 100 complete control
[28] = Preemergence, 125 g ai/ha, visual, scale 0 no effect to 100 complete control
[29] = Preemergence, 250 g ai/ha, visual, scale 0 no effect to 100 complete control
[30] = 125 g ai/ha, Preemergence, scale 0 to 100 (0 no effect, 100 complete control)
[31] = 125 g ai/ha, visual, scale 0 no effect to 100 complete control

SMILES: CC(=O)Oc1c(C)nn(C)c(=O)c1-c1c(C)sc2ccc(C)cc12 [Compound 25]
- Plant response rating, Nightshade [1, 18]: 80
- Plant response rating, Nightshade [1, 19]: 95
- Plant response rating, Nightshade [1, 20]: 90
- Plant response rating, Nightshade [1, 21]: 98
- Plant response rating, Beggarticks [2, 22]: 100
- Plant response rating, Beggarticks [2, 23]: 100
- Plant response rating, Beggarticks [2, 24]: 100
- Plant response rating, Beggarticks [2, 25]: 100
- Plant response rating, Beggarticks [2, 26]: 100
- Plant response rating, Beggarticks [2, 27]: 100
- Plant response rating, Beggarticks [2, 28]: 100
- Plant response rating, Beggarticks [2, 29]: 100
- Plant response rating, Sandbur [3, 22]: 60
- Plant response rating, Sandbur [3, 23]: 65
- Plant response rating, Sandbur [3, 24]: 70
- Plant response rating, Sandbur [3, 30]: 80
- Plant response rating, Sandbur [3, 25]: 75
- Plant response rating, Sandbur [3, 26]: 50
- Plant response rating, Sandbur [3, 27]: 35
- Plant response rating, Sandbur [3, 29]: 85
- Plant response rating, Surinam Grass [4, 18]: 80
- Plant response rating, Surinam Grass [4, 19]: 90
- Plant response rating, Surinam Grass [4, 20]: 65
- Plant response rating, Surinam Grass [4, 21]: 95
- Plant response rating, Arrowleaf Sida [5, 22]: 75
- Plant response rating, Arrowleaf Sida [5, 23]: 80
- Plant response rating, Arrowleaf Sida [5, 24]: 80
- Plant response rating, Arrowleaf Sida [5, 25]: 85
- Plant response rating, Arrowleaf Sida [5, 26]: 60
- Plant response rating, Arrowleaf Sida [5, 27]: 40
- Plant response rating, Arrowleaf Sida [5, 28]: 90
- Plant response rating, Arrowleaf Sida [5, 29]: 95
- Plant response rating, Ragweed [6, 22]: 90
- Plant response rating, Ragweed [6, 23]: 95
- Plant response rating, Ragweed [6, 24]: 90
- Plant response rating, Ragweed [6, 30]: 98
- Plant response rating, Ragweed [6, 25]: 95
- Plant response rating, Ragweed [6, 26]: 90
- Plant response rating, Ragweed [6, 27]: 75
- Plant response rating, Ragweed [6, 29]: 100
- Plant response rating, Goosegrass [7, 18]: 65
- Plant response rating, Goosegrass [7, 20]: 20
- Plant response rating, Goosegrass [7, 31]: 80
- Plant response rating, Goosegrass [7, 21]: 90
- Plant response rating, Corn [8, 22]: 20
- Plant response rating, Corn [8, 23]: 0
- Plant response rating, Corn [8, 24]: 20
- Plant response rating, Corn [8, 25]: 15
- Plant response rating, Corn [8, 26]: 10
- Plant response rating, Corn [8, 27]: 0
- Plant response rating, Corn [8, 28]: 0
- Plant response rating, Corn [8, 29]: 0
- Plant response rating, Soybean [9, 22]: 20
- Plant response rating, Soybean [9, 24]: 30
- Plant response rating, Soybean [9, 30]: 0
- Plant response rating, Soybean [9, 25]: 75
- Plant response rating, Soybean [9, 26]: 0
- Plant response rating, Soybean [9, 27]: 0
- Plant response rating, Soybean [9, 29]: 70
- Plant response rating, Panicum, Fall [10, 22]: 50
- Plant response rating, Panicum, Fall [10, 23]: 100
- Plant response rating, Panicum, Fall [10, 24]: 80
- Plant response rating, Panicum, Fall [10, 30]: 100
- Plant response rating, Panicum, Fall [10, 25]: 90
- Plant response rating, Panicum, Fall [10, 26]: 50
- Plant response rating, Panicum, Fall [10, 27]: 95
- Plant response rating, Panicum, Fall [10, 29]: 100
- Plant response rating, Foxtail, Giant [11, 18]: 95
- Plant response rating, Foxtail, Giant [11, 20]: 80
- Plant response rating, Foxtail, Giant [11, 31]: 98
- Plant response rating, Foxtail, Giant [11, 21]: 100
- Plant response rating, Johnsongrass [12, 18]: 60
- Plant response rating, Johnsongrass [12, 20]: 75
- Plant response rating, Johnsongrass [12, 31]: 80
- Plant response rating, Johnsongrass [12, 21]: 90
- Plant response rating, Kochia [13, 22]: 95
- Plant response rating, Kochia [13, 23]: 80
- Plant response rating, Kochia [13, 24]: 100
- Plant response rating, Kochia [13, 25]: 98
- Plant response rating, Kochia [13, 26]: 90
- Plant response rating, Kochia [13, 27]: 20
- Plant response rating, Kochia [13, 28]: 98
- Plant response rating, Kochia [13, 29]: 100
- Plant response rating, Crabgrass, Brazil [14, 22]: 40
- Plant response rating, Crabgrass, Brazil [14, 23]: 90
- Plant response rating, Crabgrass, Brazil [14, 24]: 50
- Plant response rating, Crabgrass, Brazil [14, 25]: 50
- Plant response rating, Crabgrass, Brazil [14, 26]: 30
- Plant response rating, Crabgrass, Brazil [14, 27]: 75
- Plant response rating, Crabgrass, Brazil [14, 28]: 95
- Plant response rating, Crabgrass, Brazil [14, 29]: 95
- Plant response rating, Velvetleaf [15, 18]: 100
- Plant response rating, Velvetleaf [15, 19]: 98
- Plant response rating, Velvetleaf [15, 20]: 60
- Plant response rating, Velvetleaf [15, 21]: 100
- Plant response rating, Pigweed, Palmer [16, 22]: 80
- Plant response rating, Pigweed, Palmer [16, 23]: 90
- Plant response rating, Pigweed, Palmer [16, 24]: 100
- Plant response rating, Pigweed, Palmer [16, 30]: 100
- Plant response rating, Pigweed, Palmer [16, 25]: 85
- Plant response rating, Pigweed, Palmer [16, 26]: 75
- Plant response rating, Pigweed, Palmer [16, 27]: 65
- Plant response rating, Pigweed, Palmer [16, 29]: 100
- Plant response rating, Lambsquarters [17, 18]: 100
- Plant response rating, Lambsquarters [17, 20]: 98
- Plant response rating, Lambsquarters [17, 31]: 100
- Plant response rating, Lambsquarters [17, 21]: 100
